Counter-ions that a name gives are not always drawn.
target: T1, human LOXL2 (Homo sapiens, UniProt Q9Y4K0); assay: Human LOXL2 Amine Oxidase Activity Assay (Amplex Red fluorescence); assay type: biochemical; conditions: concentrated conditioned media from CHO cells stably expressing human LOXL2, test compound incubated 2 h at 37° C., pH8, DAP substrate
T1 construct: expressed in transfected cells; secreted protein in 10-20x concentrated conditioned media
T1 sequence (Q9Y4K0 26-774): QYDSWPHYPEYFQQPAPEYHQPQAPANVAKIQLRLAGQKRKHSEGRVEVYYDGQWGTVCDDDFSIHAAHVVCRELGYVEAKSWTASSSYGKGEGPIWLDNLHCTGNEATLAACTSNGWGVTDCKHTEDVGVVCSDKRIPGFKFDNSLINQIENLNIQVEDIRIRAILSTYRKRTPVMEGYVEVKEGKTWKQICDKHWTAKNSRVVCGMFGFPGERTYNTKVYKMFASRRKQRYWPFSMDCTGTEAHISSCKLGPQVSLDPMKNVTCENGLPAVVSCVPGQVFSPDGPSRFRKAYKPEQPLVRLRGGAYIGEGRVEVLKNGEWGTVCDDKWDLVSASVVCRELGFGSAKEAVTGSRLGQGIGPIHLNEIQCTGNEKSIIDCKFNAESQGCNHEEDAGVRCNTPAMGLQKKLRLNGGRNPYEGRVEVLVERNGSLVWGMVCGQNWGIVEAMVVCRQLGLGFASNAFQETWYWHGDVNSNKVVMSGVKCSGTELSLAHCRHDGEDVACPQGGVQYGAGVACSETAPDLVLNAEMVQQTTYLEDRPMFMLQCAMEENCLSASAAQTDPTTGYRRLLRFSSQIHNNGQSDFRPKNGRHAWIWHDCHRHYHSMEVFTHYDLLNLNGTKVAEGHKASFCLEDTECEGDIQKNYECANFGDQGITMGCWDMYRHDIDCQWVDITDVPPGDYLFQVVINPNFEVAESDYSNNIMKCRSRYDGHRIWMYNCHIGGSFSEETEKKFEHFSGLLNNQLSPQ
Procedure: Example B-1: Human LOXL2 Amine Oxidase Activity Assay
LOXL2 amine oxidase activity is evaluated by measuring Amplex Red fluorescence using 10-20× concentrated conditioned media from CHO cells stably expressing human LOXL2. To assay for amine oxidase activity, 10 μL of the concentrated conditioned media is incubated with 2 μL of test compound in DMSO and 73 μL Assay Buffer (50 mM Borate Buffer, pH8) for 2 h at 37° C. After the 2 h incubation, 5 μl of 10 mM 1,5-Diaminopentane (DAP) diluted in Assay Buffer and 10 μl of Amplex Red Mix (8.5 μl Assay Buffer+0.5 μl of 10 mM Amplex Red+1 μl of 500 U/ml Horseradish Peroxidase) are added and the plate mixed and immediately placed on the FlexStaion for fluorescence measurements. Fluorescence is read in kinetic mode every 2 min for 1 hour at excitation=544 and emission=590. The amine oxidase activity is calculated from the slope of the linear portion of the curve.

IC50 [nM]	Compound
< 300	NCc1cc(=O)c2ccc(OCc3cccc(C(=O)Nc4ccccc4)c3)cc2o1 [Compound 1-48, 3-(((2-(Aminomethyl)-4-oxo-4H-chromen-7-yl)oxy)methyl)-N-phenylbenzamide hydrochloride]
< 300	NCc1cc(=O)c2ccc(Nc3cccc(C(=O)Nc4ccccc4)c3)cc2o1 [Compound 1-49, 3-((2-(Aminomethyl)-4-oxo-4H-chromen-7-yl)amino)-N-phenylbenzamide hydrochloride]
300 to 1000	NCc1cc(=O)c2cccc(Br)c2o1 [Compound 1-50, 2-(Aminomethyl)-8-bromo-4H-chromen-4-one hydrochloride]
> 1000	C#Cc1cccc2c(=O)cc(CN)oc12 [Compound 1-51, 2-(Aminomethyl)-8-ethynyl-4H-chromen-4-one hydrochloride]
300 to 1000	NCc1cc(=O)c2cccc(O)c2o1 [Compound 1-52, 2-(Aminomethyl)-8-hydroxy-4H-chromen-4-one hydrochloride]
300 to 1000	C#CCOc1cccc2c(=O)cc(CN)oc12 [Compound 1-53, 2-(Aminomethyl)-8-(prop-2-yn-1-yloxy)-4H-chromen-4-one hydrochloride]
300 to 1000	NCc1cc(=O)c2cccc(OCc3ccccc3)c2o1 [Compound 1-54, 2-(Aminomethyl)-8-(benzyloxy)-4H-chromen-4-one hydrochloride]
300 to 1000	NCc1cc(=O)c2cccc(OCCc3ccccc3)c2o1 [Compound 1-55, 2-(Aminomethyl)-8-phenethoxy-4H-chromen-4-one hydrochloride]
300 to 1000	NCc1cc(=O)c2cccc(OCC(=O)Nc3ccccc3)c2o1 [Compound 1-57, 2-((2-(Aminomethyl)-4-oxo-4H-chromen-8-yl)oxy)-N-phenylacetamide hydrochloride]

Second part, the molecule before the results:

Compound	IC50 [nM]
Cn1cc(-c2ccc3c(=O)cc(CN)oc3c2)nn1 [Compound 1-39, 2-(Aminomethyl)-7-(1-methyl-1H-1,2,3-triazol-4-yl)-4H-chromen-4-one hydrochloride]	< 300
NCc1cc(=O)c2ccc(N3CCN(c4ccccc4)CC3)cc2o1 [Compound 1-40, 2-(Aminomethyl)-7-(4-phenylpiperazin-1-yl)-4H-chromen-4-one hydrochloride]	< 300
NCc1cc(=O)c2ccc(N3CCN(C(=O)c4ccccc4)CC3)cc2o1 [Compound 1-41, 2-(Aminomethyl)-7-(4-benzoylpiperazin-1-yl)-4H-chromen-4-one hydrochloride]	< 300
NCc1cc(=O)c2ccc(N3CCCc4ccccc43)cc2o1 [Compound 1-42, 2-(Aminomethyl)-7-(3,4-dihydroquinolin-1(2H)-yl)-4H-chromen-4-one hydrochloride]	< 300
NCc1cc(=O)c2ccc(O)cc2o1 [Compound 1-43, 2-(Aminomethyl)-7-hydroxy-4H-chromen-4-one hydrochloride]	300 to 1000
CC(C)COc1ccc2c(=O)cc(CN)oc2c1 [Compound 1-44, 2-(Aminomethyl)-7-isobutoxy-4H-chromen-4-one hydrochloride]	< 300
C#CCOc1ccc2c(=O)cc(CN)oc2c1 [Compound 1-45, 2-(aminomethyl)-7-(prop-2-yn-1-yloxy)-4H-chromen-4-one hydrochloride]	< 300
NCc1cc(=O)c2ccc(OCCOc3ccccc3)cc2o1 [Compound 1-46, 2-(Aminomethyl)-7-(2-phenoxyethoxy)-4H-chromen-4-one hydrochloride]	< 300
NCc1cc(=O)c2ccc(OCc3cn(-c4ccccc4)nn3)cc2o1 [Compound 1-47, 2-(Aminomethyl)-7-((1-phenyl-1H-1,2,3-triazol-4-yl)methoxy)-4H-chromen-4-one hydrochloride]	< 300
NCc1cc(=O)c2cccc(OCCOc3ccccc3)c2o1 [Compound 1-56, 2-(Aminomethyl)-8-(2-phenoxyethoxy)-4H-chromen-4-one hydrochloride]	> 1000

— patent publication US20180215727A1, “LYSYL OXIDASE-LIKE 2 INHIBITORS AND USES THEREOF” (PharmAkea, Inc., priority 2015, published 2018)
